The source of these data is PubChem BioAssay (NCI).

Among the test systems are HCC-2998 colon; SNB-75 CNS; UACC-62 melanoma; MOLT-4 leukemia; NCI-H522 lung; OVCAR-5 ovarian; SK-OV-3 ovarian; KM12 colon; MDA-MB-435; EKVX NSCLC; SF-295 CNS; CAKI-1 renal; NCI/ADR-RES ovarian; UACC-257 melanoma; PC-3 prostate; HCT-15 colon; SK-MEL-2 melanoma; COLO 205 colon; K-562 leukemia; T-47D breast; A549 NSCLC; RPMI-8226 leukemia; A498 renal; HS 578T breast; BT-549 breast; SF-539 CNS; SW-620 colon; RXF 393 renal; OVCAR-8 ovarian; NCI-H226 lung; IGROV1 ovarian; DU-145 prostate; OVCAR-4 ovarian; CCRF-CEM leukemia; U251 CNS; MCF7 breast; SN12C renal; ACHN renal; NCI-H460 lung; SNB-19 CNS; NCI-H23 lung; HL-60(TB) leukemia; LOX IMVI melanoma; M14 melanoma; MDA-MB-468 breast; HOP-62 NSCLC; SK-MEL-28 melanoma; HCT-116 colon; 786-0 renal; HT29 colon; SK-MEL-5 melanoma; MALME-3M melanoma; HOP-92 NSCLC; OVCAR-3 ovarian; SF-268 CNS; TK-10 renal.

What all share (experiment): NCI anticancer screen, dose series, 48 h

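Step 1: Grow cells in 96-well plates. Step 2: Expose to compound for 48 hours at 5 concentrations. Step 3: Interpolate endpoints linearly; if unreached, use highest concentration. Here, GI50 denotes the concentration required for 50% inhibition of growth. TGI is the concentration that stops growth completely.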

In the case of `O=C(c1ccccc1)n1ccc(-c2cc3cc(Br)ccc3oc2=O)n1`, the GI50 is 5.29 µM in the experiment on HCC-2998 colon; 7.09 µM in the experiment with SNB-75 CNS; 3.55 µM in the experiment with UACC-62 melanoma; 3.32 µM with MOLT-4 leukemia; 3.36 µM in the experiment with NCI-H522 lung; 13.9 µM with OVCAR-5 ovarian. For the same molecule, the GI50 in the experiment on SK-OV-3 ovarian was 6.08 µM; in the experiment with KM12 colon, 4.45 µM; in the experiment on MDA-MB-435, 14.7 µM; in the experiment with EKVX NSCLC it was 2.7 µM; with SF-295 CNS, 8.91 µM; in the experiment on CAKI-1 renal, 4.16 µM. The GI50 with NCI/ADR-RES ovarian was 4.13 µM; in the experiment with UACC-257 melanoma, 4 µM; with PC-3 prostate it was 4.05 µM; in the experiment with HCT-15 colon it was 2.88 µM; with SK-MEL-2 melanoma it was 5.6 µM; in the experiment with COLO 205 colon, 19.1 µM. Also, the GI50 in the experiment on K-562 leukemia was 3.59 µM; in the experiment with T-47D breast it was 6.22 µM; in the experiment on A549 NSCLC, 12.6 µM; in the experiment on RPMI-8226 leukemia, 3.8 µM; in the experiment on A498 renal, above 100 µM; in the experiment with HS 578T breast, 17.5 µM. In addition, the GI50 was 5.18 µM in the experiment on BT-549 breast; 7.44 µM in the experiment on SF-539 CNS; 5.15 µM in the experiment on SW-620 colon; 6.18 µM in the experiment on RXF 393 renal; 2.73 µM in the experiment on OVCAR-8 ovarian; 7.23 µM in the experiment with NCI-H226 lung. The GI50 with IGROV1 ovarian is 5.48 µM; with DU-145 prostate, 8.9 µM; in the experiment on OVCAR-4 ovarian it was 4.56 µM; in the experiment with CCRF-CEM leukemia, 1.52 µM; in the experiment on U251 CNS, 4.82 µM; with MCF7 breast, 2.74 µM. The GI50 is 6.28 µM in the experiment on SN12C renal; 3.94 µM in the experiment with ACHN renal; 3.78 µM with NCI-H460 lung; 9.97 µM with SNB-19 CNS; 5.87 µM in the experiment with NCI-H23 lung; 2.09 µM in the experiment on HL-60(TB) leukemia. Also, the GI50 in the experiment on LOX IMVI melanoma is 2.8 µM; in the experiment on M14 melanoma, 3.94 µM; with MDA-MB-468 breast it was 3.6 µM; in the experiment with HOP-62 NSCLC it was 3.48 µM; in the experiment with SK-MEL-28 melanoma, 6.05 µM; with HCT-116 colon it was 3.52 µM. Moreover, the GI50 in the experiment with 786-0 renal was 3.99 µM; in the experiment with HT29 colon, 16.5 µM; in the experiment on SK-MEL-5 melanoma, 4.14 µM; in the experiment with MALME-3M melanoma, 5.9 µM; in the experiment on HOP-92 NSCLC it was 0.545 µM; in the experiment on OVCAR-3 ovarian, 2.06 µM. The GI50 is 4.29 µM with SF-268 CNS and 47.5 µM with TK-10 renal. Besides, the TGI in the experiment with HCC-2998 colon is above 100 µM; in the experiment on SNB-75 CNS it was above 100 µM; in the experiment on UACC-62 melanoma, 22.9 µM; with MOLT-4 leukemia it was 9.55 µM; in the experiment on NCI-H522 lung, 17 µM; in the experiment with OVCAR-5 ovarian, above 100 µM. For the same molecule, the TGI in the experiment on SK-OV-3 ovarian was 62.5 µM; in the experiment on KM12 colon it was above 100 µM; in the experiment with MDA-MB-435, above 100 µM; with EKVX NSCLC, above 100 µM; with SF-295 CNS it was above 100 µM; in the experiment with CAKI-1 renal, above 100 µM. Moreover, the TGI in the experiment with NCI/ADR-RES ovarian was 81.3 µM; in the experiment on UACC-257 melanoma it was 30.2 µM; in the experiment with PC-3 prostate it was above 100 µM; with HCT-15 colon, above 100 µM; in the experiment with SK-MEL-2 melanoma, 74.7 µM; in the experiment with COLO 205 colon it was 73.6 µM. The TGI was above 100 µM in the experiment on K-562 leukemia; 70.9 µM in the experiment with T-47D breast; above 100 µM with A549 NSCLC; above 100 µM in the experiment with RPMI-8226 leukemia; above 100 µM in the experiment with A498 renal; above 100 µM in the experiment with HS 578T breast. Further, the TGI with BT-549 breast was 78 µM; in the experiment on SF-539 CNS, 67.3 µM; in the experiment on SW-620 colon it was above 100 µM; in the experiment on RXF 393 renal, above 100 µM; in the experiment with OVCAR-8 ovarian it was 51.6 µM; in the experiment with NCI-H226 lung, 62.1 µM. Moreover, the TGI with IGROV1 ovarian was above 100 µM; in the experiment with DU-145 prostate it was above 100 µM; in the experiment with OVCAR-4 ovarian it was above 100 µM; with CCRF-CEM leukemia it was 15.6 µM; with U251 CNS it was above 100 µM; in the experiment with MCF7 breast it was above 100 µM. Moreover, the TGI with SN12C renal was above 100 µM; in the experiment with ACHN renal it was above 100 µM; with NCI-H460 lung it was above 100 µM; in the experiment on SNB-19 CNS, above 100 µM; with NCI-H23 lung, above 100 µM; with HL-60(TB) leukemia it was 5.49 µM. For the same molecule, the TGI in the experiment with LOX IMVI melanoma is 90.9 µM; in the experiment with M14 melanoma it was 24 µM; with MDA-MB-468 breast, 25.2 µM; with HOP-62 NSCLC, above 100 µM; with SK-MEL-28 melanoma it was above 100 µM; in the experiment on HCT-116 colon it was above 100 µM. Moreover, the TGI was above 100 µM in the experiment on 786-0 renal; above 100 µM in the experiment on HT29 colon; 23.6 µM in the experiment with SK-MEL-5 melanoma; above 100 µM with MALME-3M melanoma; above 100 µM with HOP-92 NSCLC; above 100 µM in the experiment on OVCAR-3 ovarian. Further, the TGI in the experiment with SF-268 CNS and in the experiment on TK-10 renal was above 100 µM each time.
In the case of `Cn1c(-c2ccccc2)c(/C=C/C2=[N+](C)c3ccccc3C2(C)C)c2ccccc21`, in the experiment with MDA-MB-468 breast, the GI50 was 0.343 µM and the TGI was 2.85 µM.
For the molecule `CC(C)=CC(=O)N[C@H]1CC[C@]2(C)C3CC[C@]4(C)C(C(C)N(C)C)=CCC4C3CCC2[C@H]1O` (some centres undefined), in the experiment with MDA-MB-468 breast, the GI50 is 1.65 µM and the TGI is 6.33 µM.
Taken in the same sequence, the figures for `C=C1C(=O)O[C@H]2[C@H]1CC/C(COC(=O)OC/C1=C/CC[C@@]3(C)O[C@H]3[C@H]3OC(=O)[C@@H](CN(C)C)[C@@H]3CC1)=C\CC[C@@]1(C)O[C@@H]21` were 1.35 µM and 4 µM.
Turning to `COC(=O)Nc1nc2ccc(C(=O)c3ccccc3)cc2[nH]1`, in the experiment on MDA-MB-468 breast, the GI50 was 0.338 µM and the TGI is above 100 µM.
Consider `CC(=O)O[C@H]1C(=O)[C@@]2(C)[C@H]([C@H](OC(=O)c3ccccc3)[C@]3(O)C[C@H](OC(=O)[C@H](OC(=O)OC[C@H]4COC(C)(C)O4)[C@@H](NC(=O)c4ccccc4)c4ccccc4)C(C)=C1C3(C)C)[C@]1(OC(C)=O)CO[C@@H]1C[C@@H]2O`, for which, in the experiment on MDA-MB-468 breast, the GI50 was 0.0273 µM.
`O=CN1N=C(c2cccc(Nc3ccnc4cc(Cl)ccc34)c2)CC1c1ccccc1` (centres undefined): in the experiment on MDA-MB-468 breast, the GI50 was 0.205 µM and the TGI turned out to be 0.656 µM.
As for `COC1=CC(c2ccc[nH]2)=N/C1=C\c1[nH]c(C)c(CC(=O)OCc2ccccc2)c1C`, in the experiment with MDA-MB-468 breast, the GI50 is 0.595 µM and the TGI was found to be 2.45 µM.
Taken in the same sequence, the figures for `NC(N)=NC(N)=NCCCc1ccco1` were 81.8 µM and 196 µM.
In the case of `C=C1SC(=Nc2ccccc2Cl)N(C(=O)c2sc3ccccc3c2Cl)C12CCCCC2`, in the experiment with MDA-MB-468 breast, the GI50 was 4.91 µM and the TGI was above 100 µM.
